From patent publication US8338422B2, “Indolin-2-ones and aza-indolin-2-ones” (Janssen Pharmaceutica NV, priority 2007, dated 2012)
Values joined by “and” are separate entries in the source; they are usually repeats but may differ in a detail not shown here. Identical values can stand only once.

How the values were obtained:
CDK1/CyclinB (h) = CDK1/CyclinB (h) (Homo sapiens, UniProt P06493); experiment: CDK1/CyclinB human kinase assay (FRET); format: biochemical; details: read-out: CDK1 pIC50 (converted)
Sequence of CDK1/CyclinB (h) (P06493 whole entry): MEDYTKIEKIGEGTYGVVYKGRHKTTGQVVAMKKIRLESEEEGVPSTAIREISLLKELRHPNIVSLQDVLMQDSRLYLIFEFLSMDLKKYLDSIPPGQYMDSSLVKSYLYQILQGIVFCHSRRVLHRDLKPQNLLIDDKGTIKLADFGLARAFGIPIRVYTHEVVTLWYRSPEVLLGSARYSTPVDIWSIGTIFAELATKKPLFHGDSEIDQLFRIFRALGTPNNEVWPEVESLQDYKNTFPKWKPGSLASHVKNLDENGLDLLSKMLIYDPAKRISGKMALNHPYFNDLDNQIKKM
Sequence of CDK1/CyclinB (h) (P14635 whole entry partner): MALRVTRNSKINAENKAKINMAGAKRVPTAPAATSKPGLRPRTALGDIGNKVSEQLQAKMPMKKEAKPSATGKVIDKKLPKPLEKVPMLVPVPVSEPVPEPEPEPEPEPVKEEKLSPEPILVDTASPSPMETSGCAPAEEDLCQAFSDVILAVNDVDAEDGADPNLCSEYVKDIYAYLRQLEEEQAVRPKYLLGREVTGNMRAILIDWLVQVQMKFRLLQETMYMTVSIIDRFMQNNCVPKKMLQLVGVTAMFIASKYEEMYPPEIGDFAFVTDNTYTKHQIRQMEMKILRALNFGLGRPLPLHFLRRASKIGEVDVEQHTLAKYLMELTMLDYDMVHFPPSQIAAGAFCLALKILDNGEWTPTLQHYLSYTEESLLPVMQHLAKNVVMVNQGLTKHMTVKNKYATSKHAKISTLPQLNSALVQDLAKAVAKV
Procedure, shortened: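 Z'-LYTE FRET format: 0.2 μg/ml enzyme with 2 μM Ser/Thr peptide 12 and 10 μM ATP in 50 mM Hepes pH 7.5, 10 mM MgCl2, 1 mM EGTA, 0.01% Brij-35, 60 min at room temperature. Protease development 60 min; coumarin/fluorescein emission ratio (460/538 nm, excitation 390 nm) reports phosphorylation.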

U87MG = experiment: Cellular proliferation assay (Alamar blue), U87MG; format: cell-based; details: Homo sapiens, U-87 MG, 72 h, U87MG cells, 72 hours with compound, 10% FCS, read-out: pIC50 U87MG (converted)
Procedure, shortened: (§1)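 Proliferation was assessed over 72 h of compound treatment, following 24 h of seeding without compound, under 10% FCS, 37° C. and 5% CO2. Fluorescent resazurin product was measured and compared with control cells.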

H1299 = experiment: Cellular proliferation assay (Alamar blue), H1299; format: cell-based; details: Homo sapiens, NCI-H1299, 72 h, H1299 cells, 72 hours with compound, 10% FCS, read-out: pIC50 H1299 (converted)
Procedure, shortened: as §1

A2780 = experiment: Cellular proliferation assay (Alamar blue), A2780; format: cell-based; details: Homo sapiens, A2780, 72 h, A2780 cells, 72 hours with compound, 10% FCS, read-out: pIC50 A2780 (converted)
Procedure, shortened: as §1

SK-N-SH = experiment: Cellular proliferation assay (Alamar blue), SK-N-SH; format: cell-based; details: Homo sapiens, SK-N-SH cells, 72 hours with compound, 10% FCS, read-out: pIC50 SK-N-SH (converted)
Protocol: […] functional properties of these compounds was tested in cellular proliferation assays on a panel of different cell lines in the presence of 10% FCS serum (37° C. and 5% (v/v) CO2). In a first step these cells were seeded and incubated for 24 hours in the absence of compound. In the second step the cells were incubated for 72 hours with the compounds to be tested for 72 hours. The viable cell number was finally assessed in a standard Alamar blue cell viability assay.
The viable cell number was assessed by incubation for either 4 h (HCT-116, H1299, H460) 6 h (SKOV3, HT29, U87-MG, Colo205) or 24 h (A2780, PC3, MDA-MB-231, A549, MCF-7) with Alamar blue (Resazurin 9 μg/ml, K-Ferrocyanide 90 μM K-Ferricyanide 90 μM) and the converted fluorescent product was quantified on a fluorescent plate readed (544 nm/590 nm). Effect of the compounds is calculated as of on control cells.

PLK4 (h) = PLK4 (h) (Homo sapiens, UniProt O00444); experiment: PLK-4 human kinase assay (SPA); format: biochemical; details: read-out: PLK4 pIC50 (converted)
Sequence of PLK4 (h) (O00444 whole entry): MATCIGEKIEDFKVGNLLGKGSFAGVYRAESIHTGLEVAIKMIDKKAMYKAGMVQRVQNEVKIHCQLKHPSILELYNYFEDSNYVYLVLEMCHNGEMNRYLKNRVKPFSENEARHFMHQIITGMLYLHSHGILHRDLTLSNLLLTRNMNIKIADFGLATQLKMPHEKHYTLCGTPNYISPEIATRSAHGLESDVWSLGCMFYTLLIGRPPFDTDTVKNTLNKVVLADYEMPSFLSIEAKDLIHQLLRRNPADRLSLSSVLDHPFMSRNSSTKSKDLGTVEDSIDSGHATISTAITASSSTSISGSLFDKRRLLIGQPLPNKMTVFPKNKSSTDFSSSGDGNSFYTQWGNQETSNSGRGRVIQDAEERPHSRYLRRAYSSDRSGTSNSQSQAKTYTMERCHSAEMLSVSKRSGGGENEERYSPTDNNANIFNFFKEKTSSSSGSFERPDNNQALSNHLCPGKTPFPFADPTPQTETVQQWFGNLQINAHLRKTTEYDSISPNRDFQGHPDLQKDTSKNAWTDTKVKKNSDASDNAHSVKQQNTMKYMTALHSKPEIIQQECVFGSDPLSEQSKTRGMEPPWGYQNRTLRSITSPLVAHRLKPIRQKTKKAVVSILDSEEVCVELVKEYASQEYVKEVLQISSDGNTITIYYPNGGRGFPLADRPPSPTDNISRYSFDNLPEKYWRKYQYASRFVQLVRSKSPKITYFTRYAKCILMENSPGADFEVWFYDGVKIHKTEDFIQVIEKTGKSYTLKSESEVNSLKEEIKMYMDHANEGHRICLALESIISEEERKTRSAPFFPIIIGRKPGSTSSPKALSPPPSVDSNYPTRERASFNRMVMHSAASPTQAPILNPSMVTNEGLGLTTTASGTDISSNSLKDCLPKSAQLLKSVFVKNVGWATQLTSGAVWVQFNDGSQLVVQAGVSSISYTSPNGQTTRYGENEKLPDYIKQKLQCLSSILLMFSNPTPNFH
Procedure, shortened: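 Radiometric readout: 33P-labelled peptide captured on streptavidin SPA beads after EDTA stop, imaged by Leadseeker. Reaction ran 60 min at room temperature in Hepes pH 8.0 buffer. It contained 1 μM ATP with 2 nM [γ-33P]ATP, 10 μM biotinylated peptide and PLK4 (h) at 19 μg/ml.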

IC50 (CDK1/CyclinB (h)) | IC50 (U87MG) [nM] | IC50 (H1299) [nM] | IC50 (A2780) [nM] | IC50 (SK-N-SH) [nM] | IC50 (PLK4 (h)) | Structure (SMILES)
4680 nM | 1620 | 646 | 2880 | < 302 | 525 nM | COc1ccc2cc1OCCCC(=O)N(C)CCCN(C)c1ncnc3c1/C(=C/N2)C(=O)N3 [Compound 31]
> 10000 nM |  | > 10000 |  | > 10000 | 4790 nM | COc1ccc2cc1OCCCCCC(=O)N1CCN(CC1)c1ncnc3c1/C(=C/N2)C(=O)N3 [Compound 18]
132 nM and 120 nM | 2240 | 407 | 282 | < 302 | 55 nM and 52.5 nM | COc1ccc2cc1OCCCC(=O)N(C)CCCNc1ncnc3c1/C(=C/N2)C(=O)N3 [Compound 9]
